Experimental data reported in article PMC4102551, “Screening and Characterisation of Antimicrobial Properties of Semisynthetic Betulin Derivatives” (PLoS ONE, 2014).
“And” between values parts separate entries of the source, which are not always exact repeats. Identical values can stand only once. Like-named read-outs stand apart in the source and are kept apart here.

Tests used:
E. aerogenes ATCC 13048 = experiment: Broth microdilution assay, E. aerogenes; assay type: cell-based, Enterobacter aerogenes; details: 50 µM, 24 h, inhibition of growth, mean ± SD; for inhibition at 50 µM: Klebsiella aerogenes, ATCC13048, 24 h, read-out: Inhibitory effect (%) E. aerogenes ATCC 13048
Description: (§1) Clinically used antimicrobial agents were selected based on international guidelines for antimicrobial testing and were utilised as reference compounds in the antimicrobial assays. The compounds were purchased from Sigma, Fluka and ICN Biomedicals. Stock solutions of the reference compounds were prepared either in double distilled sterile MilliQ water or in DMSO. Water solutions were sterilised through a 0.22 µm filter (VWR International). […] During the primary screening, these reference compounds were used as positive controls at the determined MIC on every plate.
(§2) Gram-negative strains Escherichia coli (ATCC 25922), Enterobacter aerogenes (ATCC 13048) and Pseudomonas aeruginosa (ATCC 27853), Gram-positive strains Staphylococcus aureus (ATCC 25923) and Enterococcus faecalis (ATCC 29212), and fungal strain Candida albicans (ATCC 90028) were obtained from Microbiologics Inc., and used for the antimicrobial screening. Strains were selected according to the guidelines set for clinical laboratories by Clinical and Laboratory Standards Institute [CLSI, formerly National Committee on Clinical Laboratory Standards [22]] and the European Committee on Antimicrobial Susceptibility Testing (EUCAST). Bacterial strains were grown on Mueller Hinton II Agar (MHA) (BBL, BD) and Mueller Hinton II broth (MHB) (BBL, BD), whereas Candida was initiated on Sabouraud Dextrose Agar (SDA) (Difco, BD) plates. Media were prepared into MilliQ water according to manufacturer’s instruction and autoclaved at 121°C for 15 min. Bacteria were plated on MHA plates and incubated at 37°C for 16–18 h. Bacterial suspension for the assays was prepared by subculturing the bacteria into MHB and by incubating at 37°C for 16–20 h at 110 rpm prior to the assay. Candida strain was grown on SDA plates at 27°C for 16–18 h and suspended into sterile 0.9% saline for the assay.
(§3) Antimicrobial screening assays were performed by broth microdilution method following the guidelines of CLSI and EUCAST. Bacterial suspensions were prepared as mentioned earlier and diluted with MHB to obtain a final inoculum of 5×10^5 colony-forming units (cfu)/mL in the assay for all the bacteria (based on OD620 values previously calibrated against plate counts). Candida suspension was prepared into sterile 0.9% saline solution as stated earlier. […] Assays were carried out in clear 96-well microtitre plates and initiated by dispensing an equal volume of microbial suspension and sample solution diluted into the assay medium into the wells. The plates were incubated for 24 h at 37°C (for Candida the incubation was at 35°C for 48 h) with agitation. Absorbance was measured at 620 nm with Victor plate reader (Wallac 1420, Perkin Elmer) at 0, 4 and 24 h with the bacteria, and at 0, 24 and 48 h with Candida. The antimicrobial activity of the samples was calculated from the absorbance values by comparing to the controls, and expressed as a percentage inhibition of growth. All the betulin derivatives were first assayed at the single concentration of 50 µM (two separate experiments, each with three replicates). […] The MIC90 value was expressed as the lowest concentration of compound that inhibited the microbial growth by >90%. The MIC90 results are means of three replicates from two separate experiments.

S. aureus ATCC 25923 = experiment: Broth microdilution assay, S. aureus; assay type: cell-based, Staphylococcus aureus; details: 50 µM, 24 h, inhibition of growth, mean ± SD; for inhibition at 50 µM: Staphylococcus aureus, ATCC25923, 24 h, read-out: Inhibitory effect (%) S. aureus ATCC 25923
Description: as §1, §2, §3

C. albicans ATCC 90028 = experiment: Broth microdilution assay, C. albicans; assay type: cell-based, Candida albicans; details: for inhibition at 50 µM: Candida albicans, ATCC90028, 48 h, read-out: Inhibitory effect (%) C. albicans ATCC 90028; for Inhibitory effect (%) C. albicans ATCC 90028: 50 µM, 48 h at 35°C, inhibition of growth, mean ± SD
Description: as §1, §2, §3

E. faecalis ATCC 29212 = experiment: Broth microdilution assay, E. faecalis; assay type: cell-based, Enterococcus faecalis; details: 50 µM, 24 h, inhibition of growth, mean ± SD; for inhibition at 50 µM: Enterococcus faecalis, ATCC29212, 24 h, read-out: Inhibitory effect (%) E. faecalis ATCC 29212
Description: as §1, §2, §3

in vitro = assay type: cell-based, human; details: human
Description: (§4) Huh-7 cells (derived from human hepatocellular carcinoma) were obtained as a gift from Prof. Ralf Bartenschlager (University of Heidelberg, Germany) and used for assessing the cytotoxicity against mammalian cells. HL cells (a heteroploid cell line used for propagating respiratory viruses) were used as a host cell line in the host-pathogen co-culture assay. […] Both cell lines were cultured at 37°C, 5% CO2 and 95% humidity.
(§5) The effect of the betulin derivatives on metabolic activity of Huh-7 cells was evaluated by measuring the intracellular ATP content of the cells after 24 h exposure to the compounds. In brief, cells were seeded at 20000 cells/well on white-walled microplates (PerkinElmer) and incubated at 37°C, 5% CO2 and 95% humidity. After culturing the cells overnight, the medium was replaced with the assay media (5% FBS) containing the sample and the cells were incubated for 24 h. Polymyxin B sulphate (15000 IU/mL) was used as a positive control. Following the incubation period, Promega’s CellTiter-Glo Cell Viability Assay was used to determine the intracellular ATP levels according to the manufacturer’s instructions. Cells were washed with 100 µL 6.7 mM PBS, pH 7.4 and 50 µL of fresh assay media and 50 µL of the CellTiter-Glo reagent were added into the wells. After 2 min shaking, followed by 10 min incubation at RT, luminometric signal was measured using Varioskan Flash plate reader (Thermo Fisher Scientific).

P. aeruginosa ATCC 27853 = experiment: Broth microdilution assay, P. aeruginosa; assay type: cell-based, Pseudomonas aeruginosa; details: for inhibition at 50 µM: Pseudomonas aeruginosa, ATCC27853, 24 h, read-out: Inhibitory effect (%) P. aeruginosa ATCC 27853; for Inhibitory effect (%) P. aeruginosa ATCC 27853: 50 µM, 24 h, inhibition of growth, mean ± SD
Description: as §1, §2, §3

E. coli ATCC 25922 = experiment: Broth microdilution assay, E. coli; assay type: cell-based, Escherichia coli; details: for inhibition at 50 µM: Escherichia coli, ATCC25922, 24 h, read-out: Inhibitory effect (%) E. coli ATCC 25922; for Inhibitory effect (%) E. coli ATCC 25922: 50 µM, 24 h, inhibition of growth, mean ± SD
Description: as §1, §2, §3

Huh-7 cells = experiment: in vitro; assay type: cell-based, human; details: 50 µM, 24 h exposure, ATP content, 5% FBS
Description: as §4, §5

| SMILES | inhibition at 50 µM (E. aerogenes ATCC 13048) [%] | inhibition at 50 µM (S. aureus ATCC 25923) [%] | inhibition at 50 µM (C. albicans ATCC 90028) [%] | Inhibitory effect (%) E. faecalis ATCC 29212 (E. faecalis ATCC 29212) | inhibition at 50 µM (E. faecalis ATCC 29212) [%] | cytotoxicity at 24 h, 50 µM (in vitro; 50 µM, 24 h exposure, ATP content, 5% FBS, read-out: Cytotoxicity (%) Huh-7 cells) [%] | inhibition at 50 µM (P. aeruginosa ATCC 27853) [%] | inhibition at 50 µM (E. coli ATCC 25922) [%] | cytotoxicity at 24 h, 50 µM (in vitro; Cytotoxicity (%) Huh-7 cells) [%] | Inhibitory effect (%) E. aerogenes ATCC 13048 (E. aerogenes ATCC 13048) [%] | Inhibitory effect (%) S. aureus ATCC 25923 (S. aureus ATCC 25923) [%] | Inhibitory effect (%) C. albicans ATCC 90028 (C. albicans ATCC 90028) [%] | Cytotoxicity (%) Huh-7 cells (Huh-7 cells) [%] | Inhibitory effect (%) P. aeruginosa ATCC 27853 (P. aeruginosa ATCC 27853) [%] | Inhibitory effect (%) E. coli ATCC 25922 (E. coli ATCC 25922) [%] |
| --- | --- | --- | --- | --- | --- | --- | --- | --- | --- | --- | --- | --- | --- | --- | --- |
| CC(=O)OCC12CCC3(C(C)C)C1=C1C(CC4C5(C)CCC(OC(C)=O)C(C)(C)C5CCC4(C)C1(C)CC2)n1c(=O)n(-c2ccc4c(c2)OCO4)c(=O)n13 (stereo not drawn) [Compound 35] | 14.2 ± 1.6 | 5.9 ± 1.2 | 4.4 ± 12.9 | 70.0±0.9% | > 70 | -0.1 | 5.5 ± 1 | 3.4 ± 3.1 | – | – | – | – | – | – | – |
| CC(C)[C@@H]1CC[C@]2(C(=O)O)CC[C@]3(C)[C@H](CC[C@@H]4[C@@]5(C)CCC(=O)C(C)(C)[C@@H]5CC[C@]43C)[C@@H]12 [Compound 24, dihydrobetulonic acid] | 16.8 ± 5.4 | 15.1 ± 3.7 | 54.9 ± 8.3 | 56.6±2.0% | 57 | – | 4.9 ± 0.5 | 6.2 ± 4.5 | 13 ± 10.3 | – | – | – | – | – | – |
| CC(C)C12CCC3(COC(=O)C4CCCCC4)CCC4(C)C(=C31)C(CC1C3(C)CCC(OC(=O)C5CCCCC5)C(C)(C)C3CCC14C)n1c(=O)n(C)c(=O)n12 (stereo not drawn) [Compound 48] | – | – | – | 56.3±1.8% | – | – | – | – | – | 12.1±2.2 | 5.0±4.2 | -39.6±25.9 | -10.8±1.9 | 7.1±1.7 | -5.5±1.9 |
| CC(C)C12CCC3(COC(=O)c4ccccc4)CCC4(C)C(=C31)C(CC1C3(C)CCC(OC(=O)c5ccccc5)C(C)(C)C3CCC14C)n1c(=O)n(C)c(=O)n12 (stereo not drawn) [Compound 49] | – | – | – | 64.6±0.8% | – | – | – | – | – | 14.2±1.5 | 15.1±1.0 | -48.0±24.5 | -10.6±4.1 | 5.3±1.9 | 0.0±6.0 |
| C=C(C)[C@@H]1CC[C@]2(COC(C)=O)CC[C@]3(C)[C@H](CC[C@@H]4[C@@]5(C)CC[C@H](O)C(C)(C)[C@@H]5CC[C@]43C)[C@@H]12 [Compound 9] | – | – | – | 50.9±2.1% | – | – | – | – | – | 9.1±2.1 | 5.1±6.9 | 3.0±10.1 | 5.1±1.0 | -0.6±3.3 | -0.2±7.1 |
| C=C(C)[C@@H]1CC[C@]2(COC(=O)COc3cc(C(C)C)ccc3C)CC[C@]3(C)[C@H](CC[C@@H]4[C@@]5(C)CC[C@H](O)C(C)(C)[C@@H]5CC[C@]43C)[C@@H]12 [Compound 4, betulinyl 28-carboxymethoxycarvacrolate] | 9.9 ± 3.3 | -17.2 | 31.4 ± 9.1 | 72% and 72.3±4.0% | > 70 | – | 3 ± 3 | -1.2 | -4.6 | – | – | – | – | – | – |
| COc1cccc(-n2c(=O)n3n(c2=O)C2(C(C)C)CCC4(COC(C)=O)CCC5(C)C(=C42)C3CC2C3(C)CCC(OC(C)=O)C(C)(C)C3CCC25C)c1 (stereo not drawn) [Compound 34] | – | – | – | 68.4±3.0% | – | – | – | – | – | 13.8±4.3 | 3.1±2.0 | -1.1±3.5 | 8.5±2.0 | 0.6±2.5 | 1.7±4.2 |
| CC(C)C12CCC3(COC(=O)c4ccccc4)CCC4(C)C(=C31)C(CC1C3(C)CCC(OC(=O)c5ccccc5)C(C)(C)C3CCC14C)n1c(=O)n(-c3ccccc3)c(=O)n12 (stereo not drawn) [Compound 50] | – | – | – | 38.8±5.8% | – | – | – | – | – | 9.6±4.2 | 10.1±1.0 | -35.2±31.4 | -6.2±3.7 | 3.2±0.3 | -2.8±5.2 |
| C=C(C)C1CCC2(C(=O)NC(CC(=O)O)C(=O)O)CCC3(C)C(CCC4C5(C)CCC(=O)C(C)(C)C5CCC43C)C12 [Compound 27, L-aspartyl amide of betulonic acid] | – | – | – | 38.2±15.5% | – | – | – | – | – | 9.3±1.0 | 12.7±3.3 | 44.2±3.8 | 10.9±1.3 | -1.2±0.4 | 3.1±4.6 |
